Experimental data taken from PubChem BioAssay (NCI).
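1) Cells in 96-well plates. 2) Compound, 48 h, 5 concentrations. 3) Linear interpolation between surrounding doses. 4) Unreached endpoint = highest concentration. The concentration for full growth arrest is given as TGI.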

Assays:
Assay in all cases: inhibition of tumour cell growth, NCI panel, 48 h
OVCAR-4 ovarian = tested on: OVCAR-4 ovarian
BT-549 breast = tested on: BT-549 breast
MALME-3M melanoma = tested on: MALME-3M melanoma
MDA-MB-435 = tested on: MDA-MB-435
NCI-H226 lung = tested on: NCI-H226 lung
HCT-116 colon = tested on: HCT-116 colon
A549 NSCLC = tested on: A549 NSCLC
SNB-19 CNS = tested on: SNB-19 CNS
OVCAR-3 ovarian = tested on: OVCAR-3 ovarian
786-0 renal = tested on: 786-0 renal
COLO 205 colon = tested on: COLO 205 colon
HT29 colon = tested on: HT29 colon
U251 CNS = tested on: U251 CNS
CCRF-CEM leukemia = tested on: CCRF-CEM leukemia
HS 578T breast = tested on: HS 578T breast
SR leukemia = tested on: SR leukemia
KM12 colon = tested on: KM12 colon

Row | Compound | TGI (OVCAR-4 ovarian) [µM] | TGI (BT-549 breast) [µM] | TGI (MALME-3M melanoma) [µM] | TGI (MDA-MB-435) [µM] | TGI (NCI-H226 lung) [µM] | TGI (HCT-116 colon) [µM] | TGI (A549 NSCLC) [µM] | TGI (SNB-19 CNS) [µM] | TGI (OVCAR-3 ovarian) [µM] | TGI (786-0 renal) [µM] | TGI (COLO 205 colon) [µM] | TGI (HT29 colon) [µM] | TGI (U251 CNS) [µM] | TGI (CCRF-CEM leukemia) [µM] | TGI (HS 578T breast) [µM] | TGI (SR leukemia) [µM] | TGI (KM12 colon) [µM]
1 | CC(C)(CN1CCCCC1)C(/C=C/c1ccc(Cl)cc1)=N\NC(=O)N/N=C(/C=C/c1ccc(Cl)cc1)C(C)(C)CN1CCCCC1 | 15 | 13.2 | 22.9 | 13.5 | 16.4 | 12.5 | > 57 | 16.3 | 10.7 | 11.1 | 11.7 | 12.2 | 12.6 | > 21.9 | 19.9 | 8.52 | 16.9
2 | O=C1C(Br)=C(Br)C(=O)c2ccc(=O)ccc21 | 32.7 | 44.6 | 37.4 | 33.3 | > 100 | 39.1 | > 100 | > 100 | 41.8 | 32.7 | 26.4 | > 75 | 61.4 | 17 | > 84.5 | 45 | > 100
3 | O=C1c2ccccc2-n2nnnc2C2CSCN12 (stereo not given) | > 100 | > 100 | > 100 | > 100 | > 100 | > 100 | > 100 | > 100 | > 100 | > 100 | > 100 | > 100 | > 100 | > 100 | > 100 | > 100 | > 100
4 | COc1ccc(C(C)NNC(=O)c2ccncc2)cc1OC (stereo not given) | > 100 | > 100 | > 100 | > 100 | > 100 | > 100 | > 100 | > 100 | > 100 | > 100 | > 100 | > 100 | > 100 | > 100 | > 100 | > 100 | > 100
5 | Cc1ccc2nc(-c3ccccc3)cc(=O)n2c1 | > 100 | > 100 | > 100 | > 100 | > 100 | > 100 | > 100 | > 100 | > 100 | > 100 | > 100 | > 100 | > 100 | > 100 | > 100 | > 100 | > 100
6 | O=c1c(F)cn(Cc2c(Cl)cccc2Cl)c(=O)n1Cc1c(Cl)cccc1Cl | > 31.6 | > 31.6 | > 31.6 | > 31.6 | > 100 | > 31.6 | > 31.6 | > 100 | > 31.6 | > 31.6 | > 31.6 | > 31.6 | > 31.6 | > 31.6 | > 31.6 | > 31.6 | > 31.6
7 | O=C1c2ccccc2C(=O)c2c(/C=C\N3CCCCC3)ccnc21 | 28.4 | 2.22 | 1.67 | 0.289 | 8.31 | 5.89 | 5.84 | 17.1 | 9.53 | 31.3 | 6.06 | 15.1 | 14.5 | 47.6 | 4.32 | 35.9 | 18
8 | Cc1ccc(S(=O)(=O)N2CC2CCCCC=O)cc1 (stereo not given) | > 100 | > 100 | > 100 | > 100 | > 100 | > 100 | > 100 | > 100 | > 100 | > 100 | > 100 | > 100 | > 100 | 55.1 | > 100 | 37.2 | > 100
9 | N=c1oc2ccccc2cc1C(=O)NC12CC3CC(CC(C3)C1)C2 | > 86.8 | 50.6 | 98.2 | > 83.6 | > 90.3 | 71.1 | 73.1 | 80.5 | 37.5 | 9.92 | 32.7 | > 100 | 43.8 | 17.2 | > 100 | 11.4 | 52.4
10 | N#C/C(N)=C(\C#N)NC=NCCO | > 100 | > 100 | > 100 | > 100 | > 100 | > 100 | > 100 | > 100 | > 100 | > 100 | > 100 | > 100 | > 100 | > 100 | > 100 | > 100 | > 100
11 | O=C1c2cccc3cc([N+](=O)[O-])cc(c23)C(=O)N1Nc1ccc([N+](=O)[O-])cc1[N+](=O)[O-] | > 46.4 | > 31.6 | > 31.6 | > 46.4 | > 31.6 | 34.3 | > 31.6 | 38.9 | 82.8 | 35.7 | 18.3 | 24.2 | 29.3 | 14.5 | > 31.6 | 11.6 | 26.3
12 | O=C1c2sc(-c3ccc(Cl)cc3)cc2-n2cccc21 | > 100 | > 100 | > 100 | > 100 | > 100 | > 100 | > 100 | > 100 | > 100 | > 100 | > 100 | > 100 | > 100 | > 100 | > 100 | > 100 | > 100
13 | O=c1[nH]c(=O)n(C2COC(CO)C2O)cc1F (stereo not given) | > 100 | > 100 | > 100 | > 100 | > 100 | > 100 | > 100 | > 100 | > 100 | > 100 | > 100 | > 100 | > 100 | > 100 | > 100 | > 100 | > 100
14 | O=C1NC2(CCN(CCc3ccccc3)CC2)Oc2ccccc21 | > 100 | > 100 | > 100 | > 100 | > 100 | > 100 | > 100 | > 100 | > 100 | > 100 | > 100 | > 100 | > 100 | > 100 | 50.7 | > 100 | > 100
15 | CC(=O)CC1CCC(=O)/C=C/C(=O)OC(CC(C)=O)CCC(=O)/C=C/C(=O)O1 (stereo not given) | 25.4 | 6.7 | 6.72 | 32 | 61.3 | 9.08 | 43 | 43.4 | 17.1 | 10.6 | 3.4 | 31.6 | 42.8 | > 100 | 69.9 | > 100 | 42.8
